Measured values published in ChEMBL document CHEMBL1201862, “PubChem BioAssay data set” (2004).
Active and inactive are the calls of the source.

Experiments:
[1] = target: T1, Serine/threonine-protein phosphatase (Candida dubliniensis (strain CD36 / CBS 7987 / NCPF 3949 / NRRLY-17841) (Yeast), UniProt B9W6M3); test: calcineurin pathway inhibitors in yeast reporter, dose response, S. cerevisiae, CDRE-lacZ, luminescence, secondary (AID 2388); assay type: functional, cell-based;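 note: yeast reporter cells carrying a calcineurin-responsive lacZ construct stimulated with calcium chloride; luminescent beta-galactosidase reporter signal in whole cells rather than isolated phosphatase activity; potency for inhibition where a drop in reporter signal means calcineurin blockade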
T1 sequence (B9W6M3 whole entry): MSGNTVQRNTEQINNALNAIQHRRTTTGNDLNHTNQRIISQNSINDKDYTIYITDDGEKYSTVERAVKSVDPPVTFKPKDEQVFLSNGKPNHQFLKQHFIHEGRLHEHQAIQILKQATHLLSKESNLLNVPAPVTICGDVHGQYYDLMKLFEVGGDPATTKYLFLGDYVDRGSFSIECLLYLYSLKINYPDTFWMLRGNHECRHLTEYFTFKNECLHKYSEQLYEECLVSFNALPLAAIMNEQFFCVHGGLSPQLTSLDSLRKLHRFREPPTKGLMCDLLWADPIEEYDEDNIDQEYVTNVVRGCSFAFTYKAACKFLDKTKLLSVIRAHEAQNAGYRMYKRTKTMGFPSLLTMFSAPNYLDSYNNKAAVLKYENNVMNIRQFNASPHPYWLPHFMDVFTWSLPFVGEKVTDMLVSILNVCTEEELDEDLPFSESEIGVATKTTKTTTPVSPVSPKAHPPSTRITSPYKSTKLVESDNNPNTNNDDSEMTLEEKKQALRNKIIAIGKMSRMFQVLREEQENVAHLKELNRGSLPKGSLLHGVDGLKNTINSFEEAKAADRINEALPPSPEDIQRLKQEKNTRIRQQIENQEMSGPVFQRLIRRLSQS

[2] = target: ATP-dependent molecular chaperone HSP82 (Candida albicans (strain WO-1) (Yeast), UniProt C4YTQ8); test: loss of DOC-induced GRE-beta-galactosidase reporter signal, dose response, Hsp90 inhibitor project, S. cerevisiae, luminescence (AID 2400); assay type: functional, cell-based;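 note: beta-galactosidase luminescence from glucocorticoid response element reporter as proxy for Hsp90 function; inhibitor potency where signal loss means Hsp90 inhibition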
ATP-dependent molecular chaperone HSP82, sequence (C4YTQ8 whole entry): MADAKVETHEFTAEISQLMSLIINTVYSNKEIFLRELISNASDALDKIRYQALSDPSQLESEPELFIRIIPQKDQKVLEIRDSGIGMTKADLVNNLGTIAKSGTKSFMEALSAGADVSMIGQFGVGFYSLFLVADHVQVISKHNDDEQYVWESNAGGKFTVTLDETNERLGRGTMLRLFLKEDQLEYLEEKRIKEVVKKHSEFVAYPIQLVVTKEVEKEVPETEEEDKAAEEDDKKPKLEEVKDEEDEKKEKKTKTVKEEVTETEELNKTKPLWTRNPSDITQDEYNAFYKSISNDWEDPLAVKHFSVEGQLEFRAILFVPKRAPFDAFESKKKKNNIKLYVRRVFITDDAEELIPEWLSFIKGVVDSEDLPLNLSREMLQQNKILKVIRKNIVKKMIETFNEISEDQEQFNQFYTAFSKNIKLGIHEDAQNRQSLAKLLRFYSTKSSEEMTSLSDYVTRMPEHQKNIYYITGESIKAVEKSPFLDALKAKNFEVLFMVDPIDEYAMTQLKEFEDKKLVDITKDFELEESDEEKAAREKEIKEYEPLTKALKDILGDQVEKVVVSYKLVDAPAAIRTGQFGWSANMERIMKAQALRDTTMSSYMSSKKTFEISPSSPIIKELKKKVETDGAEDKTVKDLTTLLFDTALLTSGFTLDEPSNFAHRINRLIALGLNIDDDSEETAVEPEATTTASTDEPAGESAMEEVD

[3] = NIH-3T3 fibroblast cytotoxicity, dose response, cytotoxicity control, cell-based, fluorescence, Alamar Blue, secondary assay (AID 2327); assay type: functional;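 note: NIH-3T3 mouse fibroblasts cultured with fluconazole at 8 µg/mL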
[4] = C. albicans growth with fluconazole, confirmation, fluorescence, retest (AID 2467); assay type: functional, cell-based
[5] = target: T2, Probable nicotinate-nucleotide adenylyltransferase (Staphylococcus aureus (strain N315), UniProt P65502); assay type: functional, Staphylococcus aureus subsp. aureus N315;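 for IC50 Mean: confirmatory dose-response retesting of NadD inhibitor hits first found in an ultra-high-throughput screen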
T2 sequence (P65502 whole entry): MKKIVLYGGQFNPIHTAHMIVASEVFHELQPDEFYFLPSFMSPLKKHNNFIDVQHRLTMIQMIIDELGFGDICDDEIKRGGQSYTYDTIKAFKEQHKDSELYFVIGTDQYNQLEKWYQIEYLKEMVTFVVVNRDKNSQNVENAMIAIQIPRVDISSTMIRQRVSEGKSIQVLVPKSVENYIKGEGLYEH

[6] = system: Streptococcus; test: Group A Streptococcus viability loss, dose response, counter-screen for streptokinase expression inhibitor project, luminescence, BacTiterGlo (AID 1915); assay type: functional, organism-based;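 note: potency for reduction of bacterial viability or growth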
[7] = target: T2, Probable nicotinate-nucleotide adenylyltransferase; assay type: functional, Staphylococcus aureus subsp. aureus N315; settings: read-out: IC50_Mean
[8] = system: Streptococcus sp. 'group A'; test: growth inhibition of control SK(-) GAS strain, dose response, counter-screen for streptokinase expression inhibitor project, luminescence, kanamycin, BacTiterGlo, confirmation (AID 1900); assay type: functional, organism-based
[9] = ADAM10 protease inhibitors, dose response, selectivity assay for ADAM17 exosite inhibitor project, biochemical, FRET peptide substrate, recombinant human ADAM10 (AID 743259);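 note: ADAM10 enzyme cleaving a FRET peptide substrate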
[10] = off-target signal loss in HeLa-CEM21 co-culture – HeLa F-luc CTL cells, cherry-picked, counter-screen for HIV-1 Env fusion inhibitor project, dose response (AID 652040); assay type: functional, cell-based;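 note: potency for signal decrease marking cytotoxic or nonspecific inhibition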
[11] = ZM109 Env clade C HIV-1 fusion inhibitors, dose response, HeLa effector, CEM target cells, luciferase, cherry-pick (AID 652058); assay type: functional, cell-based
[12] = inhibitors of clade B AD8 Env fusion, dose response, cell-based, cherry-pick (AID 652062); assay type: functional;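 note: luciferase signal from cell-cell fusion driven by HIV-1 clade B AD8 Env; potency is for inhibitors of fusion seen as a drop in luminescence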
[13] = inhibitors of HIV Env-driven cell fusion, dose response, cherry-pick (AID 652057); assay type: functional, cell-based
[14] = CEM21 lymphoblast cell cytotoxicity, dose response, cytotoxicity control for viral fusion inhibitor project, CellTiter-Glo luminescence, cherry-picked (AID 652042); assay type: functional, cell-based;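 note: potency for signal decrease meaning cytotoxicity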
[15] = target: Glucose-6-phosphate 1-dehydrogenase (Homo sapiens, UniProt P11413); test: human G6PD enzyme inhibitors, dose response, selectivity assay for P. falciparum G6PD inhibitor project, biochemical, fluorescence (AID 504792); assay type: functional
Glucose-6-phosphate 1-dehydrogenase, sequence (P11413 whole entry): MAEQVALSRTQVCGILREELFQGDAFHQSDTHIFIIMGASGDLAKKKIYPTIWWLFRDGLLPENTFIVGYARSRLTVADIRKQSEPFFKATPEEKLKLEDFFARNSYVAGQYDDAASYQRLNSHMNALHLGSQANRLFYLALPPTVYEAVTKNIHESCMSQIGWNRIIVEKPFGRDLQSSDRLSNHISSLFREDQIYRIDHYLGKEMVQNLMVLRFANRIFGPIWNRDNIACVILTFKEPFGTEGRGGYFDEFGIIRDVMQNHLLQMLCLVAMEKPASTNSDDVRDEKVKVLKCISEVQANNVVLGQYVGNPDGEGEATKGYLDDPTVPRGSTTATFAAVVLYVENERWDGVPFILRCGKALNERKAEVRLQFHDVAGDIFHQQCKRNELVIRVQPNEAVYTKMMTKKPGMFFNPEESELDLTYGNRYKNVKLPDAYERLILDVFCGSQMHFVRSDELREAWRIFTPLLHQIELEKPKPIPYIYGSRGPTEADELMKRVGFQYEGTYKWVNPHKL

[16] = target: Mitochondrial peptide methionine sulfoxide reductase (Bos taurus, UniProt P54149); test: Absorbance-based biochemical high throughput dose response assay for activators of Methionine sulfoxide reductase A (MsrA).; assay type: functional
Mitochondrial peptide methionine sulfoxide reductase, sequence (P54149 whole entry): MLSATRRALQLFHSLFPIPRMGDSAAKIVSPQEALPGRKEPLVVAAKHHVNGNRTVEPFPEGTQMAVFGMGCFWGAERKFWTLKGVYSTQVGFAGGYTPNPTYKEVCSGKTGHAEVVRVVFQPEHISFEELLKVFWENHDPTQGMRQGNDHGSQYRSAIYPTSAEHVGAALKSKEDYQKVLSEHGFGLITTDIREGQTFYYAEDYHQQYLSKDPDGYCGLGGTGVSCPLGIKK

[17] = target: DNA dC->dU-editing enzyme APOBEC-3A (Homo sapiens, UniProt P31941); test: APOBEC3A DNA deaminase inhibitors, dose response, biochemical (AID 504722); assay type: functional
DNA dC->dU-editing enzyme APOBEC-3A, sequence (P31941 whole entry): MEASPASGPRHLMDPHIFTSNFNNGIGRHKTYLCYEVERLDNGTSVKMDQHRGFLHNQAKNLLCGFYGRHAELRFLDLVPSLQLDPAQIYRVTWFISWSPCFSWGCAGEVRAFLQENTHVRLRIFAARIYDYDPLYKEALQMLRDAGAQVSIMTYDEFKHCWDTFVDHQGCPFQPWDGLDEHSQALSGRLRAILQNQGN

[18] = target: DNA dC->dU-editing enzyme APOBEC-3G (Homo sapiens, UniProt Q9HC16); test: Dose Response confirmation of small molecule APOBEC3G DNA Deaminase Inhibitors via a fluorescence-based single-stranded DNA deaminase assay. [Related pubchem assays (depositor defined):AID493012, AID493028]; assay type: functional
DNA dC->dU-editing enzyme APOBEC-3G, sequence (Q9HC16 whole entry): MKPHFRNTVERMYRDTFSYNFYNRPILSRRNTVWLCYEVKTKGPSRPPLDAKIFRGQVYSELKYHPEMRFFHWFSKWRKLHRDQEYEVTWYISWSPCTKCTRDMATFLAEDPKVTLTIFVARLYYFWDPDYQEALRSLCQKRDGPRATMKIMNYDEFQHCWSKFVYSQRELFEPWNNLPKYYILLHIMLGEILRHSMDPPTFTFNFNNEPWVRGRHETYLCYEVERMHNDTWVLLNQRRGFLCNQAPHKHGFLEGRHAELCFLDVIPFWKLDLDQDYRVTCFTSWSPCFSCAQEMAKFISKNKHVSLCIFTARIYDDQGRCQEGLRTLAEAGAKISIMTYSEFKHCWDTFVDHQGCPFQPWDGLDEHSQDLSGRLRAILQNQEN

[19] = target: Large T antigen (Simian virus 40, UniProt P03070); assay type: functional, Betapolyomavirus macacae;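 note: Confirmatory-stage PubChem screen for compounds that inhibit SV40 T antigen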
Large T antigen, sequence (P03070 whole entry, the tested form may be a part): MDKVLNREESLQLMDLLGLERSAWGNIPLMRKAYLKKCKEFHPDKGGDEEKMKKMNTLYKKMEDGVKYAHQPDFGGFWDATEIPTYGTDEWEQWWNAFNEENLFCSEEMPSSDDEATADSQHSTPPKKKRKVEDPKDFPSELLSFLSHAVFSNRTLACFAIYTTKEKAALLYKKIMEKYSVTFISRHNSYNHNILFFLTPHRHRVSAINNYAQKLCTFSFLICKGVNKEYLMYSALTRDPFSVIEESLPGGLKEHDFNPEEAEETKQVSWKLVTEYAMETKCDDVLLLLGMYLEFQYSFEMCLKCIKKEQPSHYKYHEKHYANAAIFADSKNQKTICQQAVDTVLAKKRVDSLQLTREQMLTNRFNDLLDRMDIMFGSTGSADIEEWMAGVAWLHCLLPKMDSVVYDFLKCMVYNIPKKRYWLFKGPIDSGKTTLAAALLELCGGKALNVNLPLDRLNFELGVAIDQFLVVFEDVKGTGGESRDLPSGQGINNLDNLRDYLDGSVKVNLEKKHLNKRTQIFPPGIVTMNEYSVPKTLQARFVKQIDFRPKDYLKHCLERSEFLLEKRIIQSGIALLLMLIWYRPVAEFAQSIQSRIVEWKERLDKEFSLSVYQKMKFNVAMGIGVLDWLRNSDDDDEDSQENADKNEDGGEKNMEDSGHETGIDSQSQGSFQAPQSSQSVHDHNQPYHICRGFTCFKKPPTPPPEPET

[20] = target: T3, Sentrin-specific protease 1 (Homo sapiens, UniProt Q9P0U3); test: Dose response confirmation of small molecule inhibitors of the catalytic domain of the SUMO protease, SENP1 in a FRET assay.; assay type: functional; settings: read-out: IC50_Mean
T3 sequence (Q9P0U3 whole entry): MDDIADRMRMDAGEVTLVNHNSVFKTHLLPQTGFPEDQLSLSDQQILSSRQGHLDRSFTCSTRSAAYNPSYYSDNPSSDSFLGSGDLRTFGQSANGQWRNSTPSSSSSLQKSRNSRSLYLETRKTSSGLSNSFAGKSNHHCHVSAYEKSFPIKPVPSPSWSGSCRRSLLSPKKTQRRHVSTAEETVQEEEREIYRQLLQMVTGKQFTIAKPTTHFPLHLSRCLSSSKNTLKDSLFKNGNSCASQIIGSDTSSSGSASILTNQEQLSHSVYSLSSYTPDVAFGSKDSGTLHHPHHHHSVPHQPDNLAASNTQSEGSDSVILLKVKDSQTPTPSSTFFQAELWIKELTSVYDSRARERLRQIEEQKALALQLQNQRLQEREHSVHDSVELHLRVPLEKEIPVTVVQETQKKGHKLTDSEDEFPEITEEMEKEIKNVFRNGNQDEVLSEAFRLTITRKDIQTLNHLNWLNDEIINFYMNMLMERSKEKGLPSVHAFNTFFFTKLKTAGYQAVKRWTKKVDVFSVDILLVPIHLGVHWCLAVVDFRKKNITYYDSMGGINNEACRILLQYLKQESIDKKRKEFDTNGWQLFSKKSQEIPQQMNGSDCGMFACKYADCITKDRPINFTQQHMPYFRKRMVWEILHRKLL

[21] = target: T3, Sentrin-specific protease 1; test: potency of human SENP1 inhibitors, dose response, biochemical, kinetic FRET (AID 651697); assay type: functional; settings: read-out: IC50_Mean
[22] = target: T4, Rac GTPase-activating protein 1 (Homo sapiens, UniProt Q9H0H5); test: MgcRacGAP GTPase-activating activity inhibitors, confirmation, biochemical, ADP Hunter fluorescence, primary and confirmatory (AID 624330); assay type: functional
T4 sequence (Q9H0H5 whole entry): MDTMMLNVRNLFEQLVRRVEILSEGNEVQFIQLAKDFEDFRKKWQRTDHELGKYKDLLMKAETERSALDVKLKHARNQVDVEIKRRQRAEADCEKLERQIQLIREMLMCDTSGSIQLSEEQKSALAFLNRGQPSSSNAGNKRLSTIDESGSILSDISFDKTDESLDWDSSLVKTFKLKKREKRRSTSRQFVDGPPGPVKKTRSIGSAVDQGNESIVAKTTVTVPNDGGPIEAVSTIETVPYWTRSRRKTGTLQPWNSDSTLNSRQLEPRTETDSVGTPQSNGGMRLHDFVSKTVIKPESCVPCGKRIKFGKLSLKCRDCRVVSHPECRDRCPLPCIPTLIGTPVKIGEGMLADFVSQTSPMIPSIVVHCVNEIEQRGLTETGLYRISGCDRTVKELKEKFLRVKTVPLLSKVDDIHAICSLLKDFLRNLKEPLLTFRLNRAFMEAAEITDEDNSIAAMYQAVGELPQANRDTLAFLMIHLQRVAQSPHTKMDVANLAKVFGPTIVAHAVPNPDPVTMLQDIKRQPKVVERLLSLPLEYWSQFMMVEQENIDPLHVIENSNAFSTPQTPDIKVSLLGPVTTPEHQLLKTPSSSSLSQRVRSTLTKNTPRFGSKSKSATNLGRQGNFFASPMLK

[23] = cells; assay type: functional, cell-based
[24] = target: Nuclear receptor subfamily 0 group B member 1 (Homo sapiens, UniProt P51843); assay type: functional, cell-based;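 note: HEK293T cells transfected with SF-1 and DAX-1 plus StAR promoter luciferase reporter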
Nuclear receptor subfamily 0 group B member 1, sequence (P51843 whole entry): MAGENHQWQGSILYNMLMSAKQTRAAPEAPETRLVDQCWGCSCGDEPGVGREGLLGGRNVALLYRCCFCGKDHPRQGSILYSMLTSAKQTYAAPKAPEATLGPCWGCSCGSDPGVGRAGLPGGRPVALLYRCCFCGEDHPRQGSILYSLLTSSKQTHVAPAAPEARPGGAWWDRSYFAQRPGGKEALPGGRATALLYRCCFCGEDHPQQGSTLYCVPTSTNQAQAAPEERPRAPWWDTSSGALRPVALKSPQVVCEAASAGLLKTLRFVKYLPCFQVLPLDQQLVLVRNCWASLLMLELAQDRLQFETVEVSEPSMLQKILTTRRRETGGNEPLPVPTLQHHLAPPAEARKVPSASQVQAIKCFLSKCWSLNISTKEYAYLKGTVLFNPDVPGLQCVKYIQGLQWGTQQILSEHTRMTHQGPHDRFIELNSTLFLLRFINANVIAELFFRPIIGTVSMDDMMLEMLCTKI

In the case of `CN(C)S(=O)(=O)Oc1cccc(C(=O)Nc2cccc(Cl)c2)c1`, the EC50 [1] is reported as > 180 µM (inactive), the EC50 [2] is reported as 24.7 µM (active) and the EC50 [3] is reported as > 150 µM (inactive). The EC50 [4] was 2.39 µM (active).
In the case of `COc1ccc(C2c3ccc4ccccc4c3Oc3ncn(CCN4CCOCC4)c(=N)c32)cc1` (centres undefined), the EC50 [1] is reported as > 180 µM (inactive), the EC50 [2] is reported as > 160 µM (inactive) and the EC50 [3] is reported as > 160 µM (inactive). The EC50 [4] was 1.9 µM (active).
With `N=C1SC(c2ccccc2)C(=O)N1c1ncc(Cc2ccccc2Cl)s1` (centres undefined) the IC50 [5] was 4.35 µM (active), the EC50 [6] was 3.47 µM (active) and the IC50 [7] was 16 µM (active). The EC50 [8] was 249 nM (active).
In the case of `CC(OC(=O)CCCCCNC1=NS(=O)(=O)c2ccccc21)C(=O)Nc1cc(Cl)cc(Cl)c1` (centres undefined), the IC50 [9] is reported as 50 µM (inactive).
With `CC1(C)Cc2ccccc2C(/C(=N\Nc2cccc(Cl)c2)C(N)=O)=N1` the AC50 [10] was 35.5 µM (active), the AC50 [11] was 2.69 µM (active) and the AC50 [12] was 8.02 µM (active). For the same molecule, the AC50 [13] was 2.68 µM (active) and the AC50 [14] was 49.5 µM (active).
With `c1ccc(SSc2ccccn2)nc1` the IC50 [15] was > 80 µM (inactive), the EC50 [16] was > 104 µM (inactive) and the IC50 [17] was > 100 µM (inactive). For the same molecule, the IC50 [18] was 3.88 µM (active) and the IC50 [19] was > 100 µM (active).
With `CCOc1cc(/C=C2\SC(=O)N=C2N)ccc1O` the IC50 [20] was 18.2 µM (active), the IC50 [21] was 10.9 µM (active) and the IC50 [22] was 13 µM (active). For the same molecule, the IC50 [19] was 4.73 µM (active).
With `COc1ccc(C(=O)CSc2nccn2C)c(OC)c1` the IC50 [23] was > 67.5 µM (inactive) and the IC50 [24] was > 67.5 µM (inactive).
